The assay deals with T1, human GPR84 receptor (Homo sapiens, UniProt Q9NQS5).
T1 construct: host or cells: HEK293, transient transfection
Description: Gαi biosensor BRET assay in HEK293 cells (antagonism of ZQ-16). Conditions: for IC50: HEK293 cells, antagonism of 200 nmol/L ZQ-16; for inhibition at 25 µM: HEK293, single concentration 25 μM (designated I); for inhibition at 2 µM: HEK293, single concentration 2 μM (designated A); for inhibition at 10 µM: HEK293, single concentration 10 μM (designated F). In kind it is cell-based. The essentials:
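Antagonist mode: test compound 5 min at 37° C, followed by ZQ-16 agonist (200 nmol/L, 5 min, room temperature), in HEK293 cells transfected with GPR84 plus Rluc8-tagged Gαi2, GFP10-Gγ2 and Gβ1. Readout as GFP10/Rluc8 emission ratio after 5 μmol/L coelenterazine 400A, net of Rluc8-only and vehicle signal.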
For orientation: Bioluminescence resonance energy transfer reports proximity on the nanometre scale.

T1 sequence (Q9NQS5 whole entry): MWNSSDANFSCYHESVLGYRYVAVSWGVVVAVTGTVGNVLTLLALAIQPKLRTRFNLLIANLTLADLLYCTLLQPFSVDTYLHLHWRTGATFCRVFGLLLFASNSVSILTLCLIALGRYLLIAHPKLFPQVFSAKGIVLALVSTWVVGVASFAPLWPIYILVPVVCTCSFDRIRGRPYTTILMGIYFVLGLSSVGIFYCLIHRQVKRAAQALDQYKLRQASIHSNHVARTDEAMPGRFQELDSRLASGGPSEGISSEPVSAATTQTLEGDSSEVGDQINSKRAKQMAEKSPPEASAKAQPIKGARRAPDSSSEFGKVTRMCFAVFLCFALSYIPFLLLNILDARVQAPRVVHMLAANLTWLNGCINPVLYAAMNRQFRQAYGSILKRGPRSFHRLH

The term inhibition denotes how much of the control response was suppressed. A higher inhibition goes with a strong effect. Broadly, the IC50 is the concentration at which inhibition is half-maximal. In turn, `Cc1cc(C#CC2CC2)ccc1-c1cn(C[C@@H]2CCCCO2)nn1` [Compound I-174] registered an IC50 above 3000 nM. The molecule also returned an inhibition at 5 µM (HEK293, single concentration 5 μM (designated D)) of at most 25%.
In turn, `C(#CC1CC1)c1cccc(-c2cnn(CC3CCCCO3)c2)c1` (centres unmarked) [Compound I-320] yielded an inhibition at 25 µM of at most 25%.
Turning to `Cc1cc2ccc(N3CC(C)(C)C3)cc2nc1-c1cn(CC2CCCCO2)nn1` (centres unmarked) [Compound I-622], the inhibition at 2 µM was at most 25%.
With `CC1(C)CN(CC#Cc2cnc(-c3cn(CC4OCC5(CC5)CO4)nn3)c(OC3CC3)c2)C1` [Compound I-794], the inhibition at 2 µM is above 75% and the IC50 is at most 300 nM.
`Cc1cc(C#CCNC(=O)OC(C)C)ccc1-c1cn(CC2CCCCO2)nn1` (centres unmarked) [Compound I-616] gave an inhibition at 10 µM above 75% and an IC50 above 3000 nM.
The molecule `C(#CC1CC1)c1ccc(-c2cnn(CC3CCCCO3)c2)cc1` (centres unmarked) [Compound I-317] returned an inhibition at 25 µM of at most 25%.
The molecule `Cc1cc(C#CC2CC2)ccc1-c1cn(CC2OCC3(CC3)CO2)nn1` [Compound I-686] had an inhibition at 10 µM above 75% and an IC50 of 300 to 1000 nM.
The molecule `Cc1c(-c2ccc(C#CC3CC3)cc2)nnn1C[C@H]1CCCCO1` [Compound I-29] yielded an inhibition at 25 µM of 50 to 75%.
On to `Cc1cc(N2CCC[C@H](N(C)Cc3ccccc3)C2)ccc1-c1cn(C[C@H]2CCCCO2)nn1` (stereo in doubt) [Compound I-240], for which the inhibition at 10 µM was above 75%.
Molecule `Cc1cc(C#CC2(O)CCCC2)ccc1-c1cn(CC2CCCCO2)nn1` (centres unmarked) [Compound I-210] returned an IC50 of 300 to 1000 nM.
`Cc1ccc(N2CC(C)(C)C2)cc1Cc1cn(CC2CCCCO2)nn1` (centres unmarked) [Compound I-443] returned an inhibition at 10 µM of at most 25%.
Still for that read-out and setting: the figure for `Cc1cc(C#CCNC(=O)C(C)(C)C)ccc1-c1cn(CC2CCCCO2)nn1` (centres unmarked) [Compound I-208] is 25 to 50%.
With `Cc1ccc(C#CC2CC2)cc1C(OCC(F)(F)F)c1cn(CC2OCC(C)(C)CO2)nn1` (centres unmarked) [Compound I-617, 4-((5-(cyclopropylethynyl)-2-methylphenyl)(2,2,2-trifluoroethoxy)methyl)-1-((5,5-dimethyl-1,3-dioxan-2-yl)methyl)-1H-1,2,3-triazole], the inhibition at 10 µM is above 75% and the IC50 is at most 300 nM.
Molecule `Cc1cc(N2CCN(C)CC2)ccc1-c1cn(C[C@H]2CCCCO2)nn1` [Compound I-111] registered an inhibition at 10 µM of at most 25%.
Molecule `Cc1cc(N2CC(C)(C)C2)c(C#CC2CC2)cc1-c1cn(C[C@H]2CCCCO2)nn1` [Compound I-435] gave an inhibition at 10 µM of at most 25%.
Turning to `Cc1cc(C#CC2CC2)cnc1-c1cn(CC2CCOCC2)nn1` [Compound I-196], the inhibition at 10 µM was at most 25%.
On to `Cc1cc(N2CCN(Cc3ccccn3)CC2)ccc1-c1cn(CC2OCC(C)(C)O2)nn1` (centres unmarked) [Compound I-603], for which the inhibition at 10 µM lay within 50 to 75% and the IC50 is above 3000 nM.
In turn, `Cc1cc(C#CCO)cnc1-c1cn(C[C@H]2CCCCO2)nn1` [Compound I-272] registered an inhibition at 10 µM of 50 to 75%.
For the molecule `CC1(C)COC(Cn2cc(-c3ncc(C#CC4CC4)cc3CC(F)(F)F)nn2)OC1` [Compound I-750], the inhibition at 10 µM is above 75% and the IC50 was at most 300 nM.
`Cc1cc(C#CC2CC2)ccc1-c1cn(CC2(C)CCCCO2)nn1` (centres unmarked) [Compound I-554] returned an inhibition at 2 µM above 75%.
The molecule `Cc1cc(C#CCNC(C)C)ccc1-c1cn(CC2CCCCO2)nn1` (centres unmarked) [Compound I-131] registered an inhibition at 10 µM of at most 25%.
The molecule `Cc1nn(CC2CCCCO2)cc1-c1ccc(C#CC2CC2)cc1` (centres unmarked) [Compound I-319] showed an inhibition at 25 µM of at most 25%.
`CN(C)c1cc(N2CC3(COC3)C2)ccc1-c1cn(CC2OCC(C)(C)CO2)nn1` [Compound I-756] gave an inhibition at 10 µM above 75% and an IC50 of 300 to 1000 nM.
For the molecule `O=c1oc(CC2CCCCO2)nn1Cc1cccc(C#CC2CC2)c1` (centres unmarked) [Compound I-18, 3-(3-(cyclopropylethynyl)benzyl)-5-((tetrahydro-2H-pyran-2-yl)methyl)-1,3,4-oxadiazol-2(3H)-one], the inhibition at 10 µM fell in the range of 50 to 75%.
In turn, `CC(C)Oc1cc(C#CCN2CC(C)(C)C2)cnc1-c1cn(CC2OCC(C)(C)CO2)nn1` [Compound I-676] returned an inhibition at 2 µM above 75% and an IC50 of at most 300 nM.
`CCc1cc(C#CCN2CCC(F)(F)CC2)cnc1-c1cn(CC2CCCCO2)nn1` (centres unmarked) [Compound I-275] came in with an inhibition at 10 µM above 75%.
Where the note is “HEK293, single concentration 3 μM (designated B)”, `Cc1cc(C#CC2CC2)ccc1-c1cn(CC2Cc3ccccc3O2)nn1` (centres unmarked) [Compound I-363] registered an inhibition at 3 µM of 25 to 50%.
In turn, `Cc1cc(N2CCN(Cc3ccccn3)CC2)ccc1-c1cncn1CC1OCC(C)(C)CO1` [Compound I-683] had an inhibition at 10 µM of at most 25%.
Consider `Cc1cc(C#CC2CC2)ccc1-c1cnn(CC2CCCCO2)c1C` (centres unmarked) [Compound I-327], for which the inhibition at 10 µM is at most 25%.
For `CCc1cc(C#CCN2CC(C)(CO)C2)cnc1-c1cn(CC2OCC(C)(C)CO2)nn1` [Compound I-789], the inhibition at 10 µM was 50 to 75% and the IC50 lay within 300 to 1000 nM.
Molecule `Cc1cc(C#CCNc2ccncc2)ccc1-c1cn(CC2CCCCO2)nn1` (centres unmarked) [Compound I-122] gave an inhibition at 10 µM of 25 to 50%.
`FC(F)(F)Cc1cc(C#CC2CC2)cnc1-c1cn(C[C@H]2CCCCO2)nn1` [Compound I-822] had an inhibition at 2 µM above 75% and an IC50 of at most 300 nM.
In turn, `Cc1ccc(C#CC2CC2)cc1-c1noc(CC2CCCCO2)n1` (centres unmarked) [Compound I-625] showed an inhibition at 10 µM of 50 to 75%.
`O=C(O)c1cnc(-c2cn(CC3OCC4(CC4)CO3)nn2)c(OC2CC2)c1` [Compound I-855]: the inhibition at 2 µM is above 75%.
On the same count and under the same terms, the figure for `CN(CC#Cc1cnc(-c2cn(CC3OCC(C)(C)CO3)nn2)c(OC2CC2)c1)C1CC1` [Compound I-858] is above 75%.
In turn, `CC(C)Oc1cc(N2CC(C)(CO)C2)cnc1-c1cn(CC2OCC(C)(C)CO2)nn1` [Compound I-694] returned an inhibition at 10 µM above 75%.
In the case of `Cc1ccc(C#CC2CC2)nc1-c1cn(Cc2ccccn2)nn1` [Compound I-480], the inhibition at 2 µM is at most 25%.
For the molecule `Cc1cc(NC(=O)c2ccccc2)ccc1-c1cn(CC2CCCCO2)nn1` (centres unmarked) [Compound I-483], the inhibition at 10 µM was at most 25%.
As for `C(#CC1CC1)c1ccc(-c2nnn(CC3CCCCO3)n2)cc1` (centres unmarked) [Compound I-1], the inhibition at 25 µM was at most 25%.
The molecule `Cc1cc(C#CCn2cc(-c3ccc(N(C)C)cc3)nn2)cnc1-c1cn(CC2OCC(C)(C)CO2)nn1` [Compound I-668] showed an inhibition at 2 µM above 75% and an IC50 of at most 300 nM.
As for `Cc1cc(CCCCN2CCCCC2)ccc1-c1cn(CC2CCCCO2)nn1` (centres unmarked) [Compound I-270], the inhibition at 10 µM was at most 25%.
On to `C(#CC1CC1)c1ccc(-c2cn(C[C@H]3CCCCO3)nn2)cc1` [Compound I-24], for which the inhibition at 25 µM is above 75% and the IC50 was above 3000 nM.
`Cc1cc(C#CC2CC2)ccc1-c1cn(CC2CCC(C)(C)O2)nn1` (centres unmarked) [Compound I-164] yielded an inhibition at 10 µM above 75% and an IC50 of 1000 to 3000 nM.
For `Cc1cc(N2CC(C)(C)C2)ccc1-c1cn(CC2OCC(C)(C)CO2)nn1` [Compound I-665], in that order: above 75% and at most 300 nM.
For the molecule `Cc1cc(N2CCC(CO)CC2)ccc1-c1cn(CC2CCCCO2)nn1` (centres unmarked) [Compound I-445], the inhibition at 10 µM was in the range of 50 to 75%.
Same read-out and setting: the figure for `Cc1cc(N2CC(C)C2)ccc1-c1cn(CC2CCCCO2)nn1` (centres unmarked) [Compound I-264] is 50 to 75%; for `Cc1cc(C2CCCN(Cc3ccccn3)C2)ccc1-c1cn(CC2CCCCO2)nn1` (centres unmarked) [Compound I-546] it is 50 to 75%; for `CN(C)c1cc(C#CCN2CC(C)(C)C2)c(F)cc1-c1cn(CC2OCC3(CCC3)O2)nn1` (centres unmarked) [Compound I-821] it is above 75%.
The same measure, in the same setting: in the case of `Cc1cc(C#CC2CC2)ccc1-c1cn(CC2CC(C)(C)O2)nn1` (centres unmarked) [Compound I-197] it was 50 to 75%; in that of `CC(=O)NCC1(C)CN(c2ccc(-c3cn(CC4CCCCO4)nn3)c(C)c2)C1` (centres unmarked) [Compound I-447], 25 to 50%.
With `Cc1cc(N2CCN(C(C)c3ccccn3)CC2)ccc1-c1cn(CC2OCC(C)(C)CO2)nn1` (centres unmarked) [Compound I-691], the inhibition at 10 µM was above 75% and the IC50 was 300 to 1000 nM.
In the same order, the values of `Cc1cc(N2CCN(C(=O)c3ccccc3)CC2)ccc1-c1cn(CC2CCCCO2)nn1` (centres unmarked) [Compound I-236] are 50 to 75% and 1000 to 3000 nM.
`COC(c1cn(CC2CCCCO2)nn1)c1cc(C#CC2CC2)ccc1C(F)(F)F` (centres unmarked) [Compound I-655]: the inhibition at 10 µM is 50 to 75%.
`Cc1cc(N2CC3(CNC3)C2)ccc1-c1cn(CC2CCCCO2)nn1` (centres unmarked) [Compound I-182]: the inhibition at 10 µM is at most 25%.
Same read-out and setting: in the case of `Cc1cc(N2CCN(Cc3ccnn3C)CC2)ccc1-c1cn(CC2CCCCO2)nn1` (centres unmarked) [Compound I-581] it was at most 25%; in that of `Cc1cc(N2CCN(Cc3ccccn3)CC2)ccc1-c1cn(CC2OCC(F)(F)CO2)nn1` [Compound I-615], 50 to 75%.
`Cc1cc(C#CC2CC2)ccc1-c1cn(CC23CC4CC(CC(C4)O2)C3)nn1` [Compound I-523]: the inhibition at 2 µM is at most 25%.
In the case of `Cc1c(-c2ccc(C#CC3CC3)cc2)nnn1CC1CCCO1` (centres unmarked) [Compound I-115], the inhibition at 10 µM is at most 25%.
`Cc1c(-c2ccc(C#CC3CC3)cc2)nnn1CC1CCCCS1(=O)=O` (centres unmarked) [Compound I-574]: the inhibition at 10 µM is at most 25%.
Molecule `CC1(C)COC(Cn2cc(-c3ncc(N4CC(C)(CO)C4)cc3OC3CC3)nn2)OC1` [Compound I-703] yielded an inhibition at 10 µM above 75% and an IC50 of 300 to 1000 nM.
For the molecule `Cc1cc(N2CCN(Cc3ccccn3)CC2=O)ccc1-c1cn(CC2OCC(C)(C)CO2)nn1` [Compound I-751], the inhibition at 10 µM was in the range of 25 to 50%.
Turning to `Cc1cc(C#CC2CC2)ccc1-c1cn(CC2CCCC(C)(C)O2)nn1` (centres unmarked) [Compound I-610], the inhibition at 2 µM was at most 25%.

These data come from patent US12617777B2, “GPR84 antagonists and uses thereof” (Liminal BioSciences Limited, priority 2021, dated 2026).
